# Experimental data taken from article doi:10.1101/2021.07.28.21261232v1 (medrxiv, 2021).
# How the values were obtained:
# Human Elastase = details: pH 8.0, room temperature, 50 mM Tris, 100 mM NaCl, Brij 35
# Human Thrombin = Human Thrombin (Homo sapiens, UniProt P00734)
# Bovine Chymotrypsin = Bovine Chymotrypsin (Bos taurus, UniProt P00766)
# in vitro = details: human, microsomes
Compound,IC50 (Human Elastase),IC50 (Human Thrombin),IC50 (Bovine Chymotrypsin),microsomal CLint (in vitro)
"CC(C)(C)[C@H](NC(=O)C(F)(F)F)C(=O)N1C[C@H]2[C@@H]([C@H]1C(=O)N[C@H](C#N)C[C@@H]1CCNC1=O)C2(C)C [compound 6, (1R,2S,5S)-N-{(1S)-1-Cyano-2-[(3S)-2-oxopyrrolidin-3-yl]ethyl}-6,6-dimethyl-3-[3-methyl-N-(trifluoroacetyl)-L-valyl]-3-azabicyclo[3.1.0]hexane-2-carboxamide]",> 100 µM,> 100 µM,> 100 µM,
"COc1cccc2[nH]c(C(=O)N[C@@H](CC(C)C)C(=O)N[C@H](C#N)C[C@@H]3CCNC3=O)cc12 [compound 2, N-[(2S)-1-({(1S)-1-Cyano-2-[(3S)-2-oxopyrrolidin-3-yl]ethyl}amino)-4-methyl-1-oxopentan-2-yl]-4-methoxy-1H-indole-2-carboxamide]",,,,34.4 ± 0.7 µL/min/mg
"CC(C)[C@H](NS(C)(=O)=O)C(=O)N1C[C@H]2[C@@H]([C@H]1C(=O)N[C@@H](C[C@@H]1CCNC1=O)C(=O)c1nc3ccccc3s1)C2(C)C [compound 4, (1R,2S,5S)-N-{(2S)-1-(1,3-Benzothiazol-2-yl)-1-oxo-3-[(3S)-2-oxopyrrolidin-3-yl]propan-2-yl}-6,6-dimethyl-3-[N-(methylsulfonyl)-L-valyl]-3-azabicyclo[3.1.0]hexane-2 carboxamide]",,,,127 ± 3 µL/min/mg
"COc1cccc2[nH]c(C(=O)N[C@@H](CC(C)C)C(=O)N[C@@H](C[C@@H]3CCNC3=O)C(=O)CO)cc12 [compound 1, PF-00835231]",,,,7.47 ± 0.88 µL/min/mg
